Test system: Gallus gallus domesticus
Test: Dietary supplementation trial, growth performance and survival
Type: in vivo
Details: ad libitum, 35 days (table title: 4 weeks), n = 27; for FE (feed efficiency) / PER (protein efficiency ratio) / Weight gain: mean ± SD
Source text: A total of 189 male or female 2-day-old G. g. domesticus were randomly assigned to seven dietary treatment groups, including rEP (0.75, 1.5, 3.0, 6.0 and 12%), spiraline-A (Juily Pharmaceutical Co., LTD. San Sia, Taipei Hsien, Taiwan), and basal diet groups. Each treatment group consisted of one cage with twenty-seven G. g. domesticus. The composition of the fodder is presented in S1b–S1d Table. The animals were allowed ad libitum access to fodder and water for the duration of the trial, beginning from 3 days of age. The total time of feeding was 35 days. The G. g. domesticus were maintained in a cage (animal container) with a constant environment (28.9–37.8°C, 12/12 h light-dark cycle). rEP fodder and fecal sewage were not directly discharged to the outside.
Body weight and survival rate were monitored daily during the experimental period. The weight gain, feed efficiency (FE), protein efficiency ratio (PER), and survival percentage were calculated. After 35 days of treatment, the G. g. domesticus were euthanized, blood samples were collected and serum was obtained by centrifugation (3000 ×g for 15 min at 4°C). Serum was kept at -80°C until analysis. Enzyme-linked immunosorbent assay (ELISA) was performed in accordance with the manufacturer’s standard procedures to determine the levels of immunological factors, including TNF-α, Interleukin-1β, Interleukin-6, Interleukin-10, Lysozyme, Immunoglobin-G (IgG), and Interferon-γ. Chicken serum samples were analyzed with ELISA kits from ABclonal Inc. (Woburn, MA, USA). After the reaction was completed, the optical density (OD) was measured at 450 nm on a microplate reader (SpectraMax® i3, Molecular Devices, Lagerhausstrasse, Wals, Austria).
Data were analyzed with Prism 7 software (GraphPad Inc., La Jolla, CA, USA). Values represent the mean ± standard deviation (SD). P < 0.05 was considered significant for one-way Analysis of variance (ANOVA) with Tukey’s multiple comparison test.

[1] = diet with 0.75% rEP spray-dried powder
[2] = diet with 1.5% rEP spray-dried powder
[3] = diet with 3.0% rEP spray-dried powder
[4] = diet with 6.0% rEP spray-dried powder
[5] = diet with 12.0% rEP spray-dried powder

**Q.** How did the “FE (feed efficiency)” value [1] turn out when “EFFIFHIIKGLFHAGRMIHGLVNRRRHRHHHHHH [rEP, recombinant His-tagged Epinephelus lanceolatus piscidin from Pichia pastoris, used as crude culture supernatant or spray-dried powder]” was run?
**A.** 0.53±0.03

**Q.** And the “PER (protein efficiency ratio)” value [1]?
**A.** 1.58±0.09

**Q.** And the Weight gain [1]?
**A.** 2531.80±142.13%

**Q.** And the Survival [1]?
**A.** 92.60%

**Q.** And the “FE (feed efficiency)” value [2]?
**A.** 0.58±0.03

**Q.** What about the “PER (protein efficiency ratio)” value [2] of the same sequence?
**A.** 1.8±0.08

**Q.** And the Weight gain [2]?
**A.** 2727.42±116.08%

**Q.** And the Survival [2]?
**A.** 100%

**Q.** And the “FE (feed efficiency)” value [3]?
**A.** 0.57±0.02

**Q.** What about the “PER (protein efficiency ratio)” value [3] of the same sequence?
**A.** 1.86±0.08

**Q.** And the Weight gain [3]?
**A.** 2809.71±119.30%

**Q.** And the Survival [3]?
**A.** 96.20%

**Q.** And the “FE (feed efficiency)” value [4]?
**A.** 0.57±0.02

**Q.** What about the “PER (protein efficiency ratio)” value [4] of the same sequence?
**A.** 2.03±0.08

**Q.** And the Weight gain [4]?
**A.** 2738.11±109.04%

**Q.** And the Survival [4]?
**A.** 100%

**Q.** What about the “FE (feed efficiency)” value [5] of the same sequence?
**A.** 0.48±0.04

**Q.** What about the “PER (protein efficiency ratio)” value [5] of the same sequence?
**A.** 2.17±0.16

**Q.** And the Weight gain [5]?
**A.** 2181.26±158.95%

**Q.** And the Survival [5]?
**A.** 96.20%

Reference: PMC7065771, “Dietary supplementation of recombinant antimicrobial peptide Epinephelus lanceolatus piscidin improves growth performance and immune response in Gallus gallus domesticus” (PLoS ONE, 2020)
